According to ChEMBL document CHEMBL1146441, “Naphthalenone and Phthalide Metabolites from Lachnum papyraceum 1” (J Nat Prod, 1997):
Values after ≈ are worked out from the molar mass of the structure shown. Active and inactive are the calls of the source. The calls are words filed in the database; no cut-off is given here.

How the values were obtained:
[1] = system: Penicillium chrysogenum; assay: Antifungal activity against Penicillium notatum; assay type: functional
[2] = system: Paecilomyces variotii; assay: Antifungal activity against Paecilomyces variotii; assay type: functional
[3] = system: Micrococcus luteus; assay: Antibacterial activity against Micrococcus luteus; assay type: functional
[4] = system: L1210; assay: Cytotoxicity against mouse L1210 cells after 48 hrs; assay type: functional, cell-based; settings: L1210, 48 h
[5] = system: Rhizomucor miehei; assay: Antifungal activity against Mucor miehei; assay type: functional
[6] = system: Lepidium sativum; assay: Phytotoxicity against Lepidium sativum assessed per disk; assay type: functional, organism-based
[7] = system: Enterobacter cloacae subsp. dissolvens; assay: Antibacterial activity against Enterobacter dissolvens; assay type: functional

Row | MIC [1] [mg/L] | MIC [2] [mg/L] | MIC [3] [mg/L] | MIC [5] [mg/L] | MIC [7] [mg/L] | Compound | Activity [1] | Activity [2] | Activity [3] | IC50 [4] [mg/L] | Activity [5] | Activity [6] | Activity [7] | IC50 [6] [µg]
1 |  |  |  |  |  | COC(=O)c1c(OC)c(C)c(OCC=C(C)C)c2c1C(=O)OC2 | inactive | inactive | inactive | 25 (≈ 78 µM) | inactive | inactive | inactive | 
2 |  |  |  |  |  | COc1c(C)c(OCC=C(C)C)c2c(c1C(=O)O)C(=O)OC2 | inactive | inactive | inactive | 50 (≈ 163 µM) | inactive | inactive | inactive | 
3 | 100 (≈ 450 µM) | 100 (≈ 450 µM) | 100 (≈ 450 µM) | 100 (≈ 450 µM) | 100 (≈ 450 µM) | COc1cc2c(c(O)c1C)C(=O)CCC2O (stereo unspecified) |  |  |  | 25 (≈ 112 µM) |  |  |  | 100
